Data from patent US20260232682A1, “GSPT1 DEGRADER COMPOUNDS” (Captor Therapeutics S.A., priority 2023, published 2026).

How the values were obtained:
[1] = target: T1, [IKZF1 ZF2]-[compound]-[CRBN/DDB1] ternary complex (Homo sapiens, UniProt Q13422+Q96SW2); assay: AlphaLISA assay for off-target recruitment detection, IKZF1 ZF2; type: binding; details: 1 μM compound, normalized to Lenalidomide; for activation at 1 µM: read-out: Normalized ternary complex response, IKZF1 ZF2
T1 construct: IKZF1 ZF2
Procedure: (§1) The ability of the molecular glue compounds of the invention to mediate the proximity of CRBN with its known neo-substrates (shown in Table 3) was assessed using AlphaLISA to detect the formation of a [neo-substrate]-[compound of formula (I)]-[CRBN/DDB1] ternary complex.
(§2) Two types of protein solution were prepared: • neo-substrate, 40 μg/ml AlphaScreen Donor Beads (Table 3) in PBS (10 mM phosphate buffer, 137 mM NaCL, 2.7 mM KCl, pH 7.4) buffer supplemented with Tween-20 (Table 3) and 1 mM DTT, • 200 nM 6×His-CRBN/DDB1, 40 μg/ml AlphaLISA Anti-6×His Acceptor beads in PBS buffer with Tween-20 (Table 3) and 1 mM DTT.
(§3) The prepared solutions were incubated at room temperature for 30 min and then the solution containing the donor beads was mixed with the solution containing the acceptor beads.
(§4) The tested compounds were dispensed onto a white 384-well AlphaPlate 384 SW. DMSO was backfilled to all wells, resulting in a final DMSO content of 2%. Wells containing only DMSO served as background. Next, 10 μl of solution with donor and acceptor beads was added to the wells.
(§5) The plate was sealed with transparent film and shaken using a VibroTurbulator for 60 sec at room temperature, level 3. The plate was then spun down shortly (10 sec, 1000 rcf, room temperature) and incubated at 25° C. for 30 min.
(§6) The read-out was performed with PerkinElmer Enspire Multimode Plate Reader (method for AlphaLISA 384-well low volume, Filterset: λexc=680 nm, λem=615 nm).
(§7) The results were analyzed as follows: • 1) an average of luminescence for background signal was calculated and used as a negative control; • 2) an average of the maximum measured luminescence for reference compound (Table 3) was calculated and used as an internal positive control; • 3) raw luminescence values were normalized against positive and negative controls; • 4) Normalized responses to reference molecular glue were determined.

[2] = target: T2, [IKZF2 ZF2]-[compound]-[CRBN/DDB1] ternary complex (Homo sapiens, UniProt Q96SW2+Q9UKS7); assay: AlphaLISA assay for off-target recruitment detection, IKZF2 ZF2; type: binding; details: 1 μM compound, normalized to Helios modulator; for activation at 1 µM: read-out: Normalized ternary complex response, IKZF2 ZF2
T2 construct: IKZF2 ZF2
Procedure: as §1, §2, §3, §4, §5, §6, §7

[3] = target: [CK1α]-[compound]-[CRBN/DDB1] ternary complex (Homo sapiens, UniProt P48729+Q96SW2); assay: AlphaLISA assay for off-target recruitment detection, CK1α; type: binding; details: 1 μM compound, normalized to FPFT-2216; for activation at 1 µM: read-out: Normalized ternary complex response, CK1α
Procedure: as §1, §2, §3, §4, §5, §6, §7

[4] = target: T3, [SALL4 ZF2]-[compound]-[CRBN/DDB1] ternary complex (Homo sapiens, UniProt Q96SW2+Q9UJQ4); assay: AlphaLISA assay for off-target recruitment detection, SALL4 ZF2; type: binding; details: 1 μM compound, normalized to Lenalidomide; for activation at 1 µM: read-out: Normalized ternary complex response, SALL4 ZF2
T3 construct: SALL4 ZF2
Procedure: as §1, §2, §3, §4, §5, §6, §7

[5] = target: T4, [GSPT1]-[compound of formula (I)]-[CRBN/DDB1] complex (Homo sapiens, UniProt P15170+Q96SW2); assay: HTRF ternary complex assay (GSPT1); type: binding; details: read-out: HTRF ternary complex Average pEC50 by molecule (converted)
Procedure: The effect of the molecular glue compounds of the invention on the formation of a ternary complex composed of [GSPT1]-[compound of formula (I)]-[CRBN/DDB1] was investigated.
Mix solution of proteins and reagents was prepared: • 48 nM GSPT1, 52.8 nM 6×His-CRBN/DDB1, 3 nM of Streptavidin-Eu cryptate ([…]) and 6.67 nM of Anti-6×his-d2 ([…]) was prepared in PPI Europium detection buffer (purchased from Cisbio) with 1 mM DTT.
The tested compounds in dose-response were dispensed onto a white 384-well low volume plate (Greiner, 784075). DMSO was backfilled to all wells, resulting in a final DMSO content of 0.5%. Wells containing only DMSO served as background.
The plate was sealed with transparent film and shaken using a VibroTurbulator for 60 sec at level 3.
The plate was then spun down shortly (10 sec, 1000 rcf) and incubated at 25° C. for 180 min.
The read-out was performed with plate reader (Pherastar, BMG Labtech) in time resolved fluorescence mode. Filter settings: TR 337 665 620.
The results were analyzed as follows: • 1) an average of fluorescence for background signal was calculated and used as a negative control; • 2) raw fluorescence values for tested compounds were normalized against negative controls; • 3) saturation curve was fitted to specific binding with Hill slope model; • 4) EC50 and pEC50 values were determined.

[6] = target: T4, [GSPT1]-[compound of formula (I)]-[CRBN/DDB1] complex; assay: AlphaLISA ternary complex formation assay (GSPT1); type: binding; details: 0.5 h; 1 μM compound; normalized to reference compound CC-885; read-out: Normalized AlphaLISA ternary complex average signal at 1 μM molecule
Procedure: The effect of the molecular glue compounds of the invention on the formation of a ternary complex composed of [GSPT1]-[compound of formula (I)]-[CRBN/DDB1] was investigated with two methods: AlphaLISA dose response assay or HTRF ternary complex assay.
Two types of protein solution were prepared: • 200 nM biotinylated GSPT1 (Table 3), 40 μg/ml AlphaScreen Streptavidin-coated Donor Beads in HBS (10 mM HEPES, 150 mM NaCL, pH 7.4) buffer with 0.1% Tween-20 and 1 mM DTT, • 200 nM 6×His-CRBN/DDB1, 40 μg/ml AlphaLISA Anti-6×His Acceptor beads in HBS buffer with 0.1% Tween-20 and 1 mM DTT.
as §3, §4, §5, §6
as §7, with “2)” for “2) an”, “(structure shown in Table 3 below)” for “(Table 3)”, “positive control” for “reference molecular glue”

[7] = target: CRBN/DDB1 protein complex (Homo sapiens, UniProt Q96SW2); assay: CRBN displacement TR-FRET assay; details: Thalidomide-Red tracer, 6×His-CRBN/DDB1; read-out: CRBN binding Ki
Procedure: CRBN/DDB1 protein complex was mixed with Thalidomide-Red and a compound to be tested (the “test compound”). The test solution contained PPI Europium detection buffer, 1 mM DTT, 6.8 nM Thalidomide-Red (the tracer), 5 nM 6×His-CRBN/DDB1 protein, 0.5 nM Anti-6× His-Eu cryptate, 1% DMSO. The test solution was added to a 384-well assay plate.
The plate was spun-down (1 min, 1000 rpm, 22° C.) and then shaken using a VibroTurbulator for 30 sec at room temperature (20-25° C.), with the frequency set to level 10. The assay plate with protein and the tracer was incubated for 180 min at room temperature (20-25° C.) prior to read-out with a plate reader. The read-out was performed with plate reader (Pherastar, BMG Labtech) in time resolved fluorescence mode. Filter settings: TR 337 665 620.
The CRBN displacement TR-FRET experiment was carried out with various concentrations of the test compounds in order to measure Ki values.
The Ki values of competitive inhibitors were calculated using the equation based on the IC50 values of relationship between compound concentration and measured […], the Kd value of the Thalidomide-Red and CRBN/DDB1 complex, and the concentrations of the protein and the tracer in the displacement assay (as described by Cheng and Prusoff, Biochem Pharmacol 1973; 22:3099-3108).

T1 sequence (Q13422 145-167 limits assumed): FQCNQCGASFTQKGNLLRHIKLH
T1 sequence (Q96SW2 whole entry): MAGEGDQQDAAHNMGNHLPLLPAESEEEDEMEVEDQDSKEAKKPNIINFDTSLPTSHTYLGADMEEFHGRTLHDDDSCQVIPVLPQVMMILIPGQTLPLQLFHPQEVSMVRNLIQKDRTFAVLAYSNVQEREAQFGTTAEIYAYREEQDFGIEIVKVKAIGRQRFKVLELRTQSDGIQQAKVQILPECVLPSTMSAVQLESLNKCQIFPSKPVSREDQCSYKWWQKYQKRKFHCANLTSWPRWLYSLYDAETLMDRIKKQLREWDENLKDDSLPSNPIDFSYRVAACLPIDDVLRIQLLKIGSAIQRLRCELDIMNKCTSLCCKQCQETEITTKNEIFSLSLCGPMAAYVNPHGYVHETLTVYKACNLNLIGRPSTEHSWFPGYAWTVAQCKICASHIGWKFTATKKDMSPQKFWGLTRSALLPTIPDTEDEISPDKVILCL
T1 sequence (Q16531 whole entry partner): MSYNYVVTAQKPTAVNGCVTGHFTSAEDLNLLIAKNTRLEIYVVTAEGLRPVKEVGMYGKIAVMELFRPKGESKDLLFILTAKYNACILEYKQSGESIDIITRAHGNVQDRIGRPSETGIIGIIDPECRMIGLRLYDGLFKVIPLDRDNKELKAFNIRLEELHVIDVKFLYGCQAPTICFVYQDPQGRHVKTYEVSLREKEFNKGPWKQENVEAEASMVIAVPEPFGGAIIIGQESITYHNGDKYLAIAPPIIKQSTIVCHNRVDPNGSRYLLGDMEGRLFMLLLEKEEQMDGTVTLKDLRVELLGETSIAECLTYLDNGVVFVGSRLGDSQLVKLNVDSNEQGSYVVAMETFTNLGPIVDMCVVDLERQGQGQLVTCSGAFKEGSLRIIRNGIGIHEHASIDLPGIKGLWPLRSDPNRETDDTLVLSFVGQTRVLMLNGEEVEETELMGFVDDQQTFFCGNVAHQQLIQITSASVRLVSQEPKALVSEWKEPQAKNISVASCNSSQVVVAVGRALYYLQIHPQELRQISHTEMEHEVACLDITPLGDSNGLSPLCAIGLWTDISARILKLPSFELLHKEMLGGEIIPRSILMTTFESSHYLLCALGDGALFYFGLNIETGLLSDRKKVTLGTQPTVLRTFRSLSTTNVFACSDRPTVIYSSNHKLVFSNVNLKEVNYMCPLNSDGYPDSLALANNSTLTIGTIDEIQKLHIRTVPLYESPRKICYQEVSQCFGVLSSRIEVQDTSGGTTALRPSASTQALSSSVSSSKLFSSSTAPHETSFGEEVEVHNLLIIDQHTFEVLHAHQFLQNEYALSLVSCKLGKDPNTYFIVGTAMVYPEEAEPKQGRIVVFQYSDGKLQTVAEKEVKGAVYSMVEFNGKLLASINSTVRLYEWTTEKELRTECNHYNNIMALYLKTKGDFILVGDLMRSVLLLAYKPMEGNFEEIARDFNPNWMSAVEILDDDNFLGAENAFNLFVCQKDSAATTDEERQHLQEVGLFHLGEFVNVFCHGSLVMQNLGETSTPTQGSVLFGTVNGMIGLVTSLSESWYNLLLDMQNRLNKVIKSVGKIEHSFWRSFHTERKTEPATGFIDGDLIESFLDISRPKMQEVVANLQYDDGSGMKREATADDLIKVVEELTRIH
CRBN/DDB1 protein complex, sequence (Q96SW2 whole entry, species assumed): as the sequence (Q96SW2 whole entry) above
CRBN/DDB1 protein complex, sequence (Q16531 whole entry partner, species assumed): as the sequence (Q16531 whole entry partner) above
T3 sequence (Q9UJQ4 410-432 limits assumed): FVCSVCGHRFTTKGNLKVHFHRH
T3 sequence (Q96SW2 whole entry): as the sequence (Q96SW2 whole entry) above
T3 sequence (Q16531 whole entry partner): as the sequence (Q16531 whole entry partner) above
[CK1α]-[compound]-[CRBN/DDB1] ternary complex, sequence (P48729 whole entry): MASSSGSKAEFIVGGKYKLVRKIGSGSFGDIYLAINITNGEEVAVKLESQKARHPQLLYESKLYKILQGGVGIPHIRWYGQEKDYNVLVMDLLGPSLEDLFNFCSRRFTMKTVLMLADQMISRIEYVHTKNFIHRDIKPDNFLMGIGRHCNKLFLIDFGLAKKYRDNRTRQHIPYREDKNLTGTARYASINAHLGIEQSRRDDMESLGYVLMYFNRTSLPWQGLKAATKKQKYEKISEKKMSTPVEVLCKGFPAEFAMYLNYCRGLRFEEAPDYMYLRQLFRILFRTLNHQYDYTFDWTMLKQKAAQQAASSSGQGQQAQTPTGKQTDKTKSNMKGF
[CK1α]-[compound]-[CRBN/DDB1] ternary complex, sequence (Q96SW2 whole entry): as the sequence (Q96SW2 whole entry) above
[CK1α]-[compound]-[CRBN/DDB1] ternary complex, sequence (Q16531 whole entry partner): as the sequence (Q16531 whole entry partner) above
T4 sequence (P15170 whole entry): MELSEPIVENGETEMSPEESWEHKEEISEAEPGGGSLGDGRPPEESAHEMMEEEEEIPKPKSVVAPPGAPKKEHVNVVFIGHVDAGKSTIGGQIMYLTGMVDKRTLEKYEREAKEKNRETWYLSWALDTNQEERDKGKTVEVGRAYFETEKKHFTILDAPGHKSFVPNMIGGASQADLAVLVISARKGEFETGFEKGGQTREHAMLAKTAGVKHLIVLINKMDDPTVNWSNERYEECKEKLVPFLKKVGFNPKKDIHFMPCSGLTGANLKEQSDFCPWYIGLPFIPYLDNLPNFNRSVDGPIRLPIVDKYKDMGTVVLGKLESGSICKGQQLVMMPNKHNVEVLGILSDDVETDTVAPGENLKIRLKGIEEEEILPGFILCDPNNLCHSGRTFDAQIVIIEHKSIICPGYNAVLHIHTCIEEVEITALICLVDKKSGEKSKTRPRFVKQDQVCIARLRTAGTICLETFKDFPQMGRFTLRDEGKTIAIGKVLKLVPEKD
T4 sequence (Q96SW2 whole entry): as the sequence (Q96SW2 whole entry) above
T4 sequence (Q16531 whole entry partner): as the sequence (Q16531 whole entry partner) above
T2 sequence (Q9UKS7 140-162 limits assumed): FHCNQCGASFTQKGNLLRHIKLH
T2 sequence (Q96SW2 whole entry): as the sequence (Q96SW2 whole entry) above
T2 sequence (Q16531 whole entry partner): as the sequence (Q16531 whole entry partner) above

Structure (SMILES)	Normalized ternary complex response, IKZF1 ZF2 [1]	Normalized ternary complex response, IKZF2 ZF2 [2]	Normalized ternary complex response, CK1α [3]	Normalized ternary complex response, SALL4 ZF2 [4]	EC50 [5]	activation at 1 µM [6]	activation at 1 µM [1]	Ki [7]	activation at 1 µM [2]	activation at 1 µM [3]	activation at 1 µM [4]
Cc1ccc(NC(=O)NCc2ccc3c(c2)CN(C2CCC(=O)NC2=O)C3=O)cc1Cl (centres unmarked) [CC-885, reference compound]	A (A≥50%)	A (A≥50%)	C (10%≤C<25%)	A (A≥50%)							
Cc1nc2ccc(CNC(=O)C(=O)c3ccc(C(C)(C)C)cc3)cc2cc1C1CCC(=O)NC1=O (centres unmarked) [Compound 1, 2-(4-(tert-butyl)phenyl)-N-((3-(2,6-dioxopiperidin-3-yl)-2-methylquinolin-6-yl)methyl)-2-oxoacetamide]					< 316 nM	> 50%	25 to 50%	< 500 nM	10 to 25%	< 10%	≥ 50%
Cc1ccc(Nc2c(NCc3ccc4cc(C5CCC(=O)NC5=O)c(C)nc4c3)c(=O)c2=O)cc1Cl (centres unmarked) [Compound 3, 3-(7-(((2-((3-chloro-4-methylphenyl)amino)-3,4-dioxocyclobut-1-en-1-yl)amino)methyl)-2-methylquinolin-3-yl)piperidine-2,6-dione]					> 3160 nM	10 to 50%	< 10%	> 1000 nM	< 10%	< 10%	< 10%
Cc1nc2ccc(COC(=O)Nc3cc(OC(F)(F)F)ccc3F)cc2cc1C1CCC(=O)NC1=O (centres unmarked) [Compound 7, (3-(2,6-dioxopiperidin-3-yl)-2-methylquinolin-6-yl)methyl (2-fluoro-5-(trifluoromethoxy)phenyl)carbamate]					> 3160 nM	10 to 50%	25 to 50%	< 500 nM	< 10%	< 10%	≥ 50%
Cc1ccc(-c2nnc(NCc3ccc4cc(C5CCC(=O)NC5=O)c(C)nc4c3)o2)cc1Cl (centres unmarked) [Compound 13, 3-(7-(((5-(3-chloro-4-methylphenyl)-1,3,4-oxadiazol-2-yl)amino)methyl)-2-methylquinolin-3-yl)piperidine-2,6-dione]					> 3160 nM	10 to 50%	< 10%	< 500 nM	< 10%	< 10%	< 10%
Cc1nc2ccc(CNC(=O)C(=O)N3CCC(C(C)(C)C)CC3)cc2cc1C1CCC(=O)NC1=O (centres unmarked) [Compound 23, 2-(4-(tert-butyl)piperidin-1-yl)-N-((3-(2,6-dioxopiperidin-3-yl)-2-methylquinolin-6-yl)methyl)-2-oxoacetamide]					> 3160 nM	10 to 50%	< 10%	< 500 nM	< 10%	< 10%	25 to 50%

Results, then the compound that gave them:

Normalized ternary complex response, IKZF1 ZF2 [1]	Normalized ternary complex response, IKZF2 ZF2 [2]	Normalized ternary complex response, CK1α [3]	Normalized ternary complex response, SALL4 ZF2 [4]	EC50 [5]	activation at 1 µM [6]	activation at 1 µM [1]	Ki [7]	activation at 1 µM [2]	activation at 1 µM [3]	activation at 1 µM [4]	Structure (SMILES)
				316 to 3160 nM	10 to 50%	< 10%	500 to 1000 nM	< 10%	< 10%	25 to 50%	Cc1ccc(NCC(=O)NCc2ccc3nc(C)c(C4CCC(=O)NC4=O)cc3c2)cc1Cl (centres unmarked) [Compound 26, 2-((3-chloro-4-methylphenyl)amino)-N-((3-(2,6-dioxopiperidin-3-yl)-2-methylquinolin-6-yl)methyl)acetamide]
				> 3160 nM	< 10%	< 10%	500 to 1000 nM	< 10%	< 10%	< 10%	Cc1ccc(NC(=O)C(C)Oc2ccc3cc(C4CCC(=O)NC4=O)c(C)nc3c2)cc1Cl (centres unmarked) [Compound 34, N-(3-chloro-4-methylphenyl)-2-((3-(2,6-dioxopiperidin-3-yl)-2-methylquinolin-7-yl)oxy)propenamide]
				> 3160 nM	< 10%	< 10%	< 500 nM	< 10%	< 10%	< 10%	Cc1nc2cc(OC(C)C(=O)NC3CCCCC3)ccc2cc1C1CCC(=O)NC1=O (centres unmarked) [Compound 36, N-cyclohexyl-2-((3-(2,6-dioxopiperidin-3-yl)-2-methylquinolin-7-yl)oxy)propenamide]
				> 3160 nM	10 to 50%	< 10%	< 500 nM	< 10%	< 10%	< 10%	Cc1nc2cc(COC(=O)NC3CCN(c4ccccc4)CC3)ccc2cc1C1CCC(=O)NC1=O (centres unmarked) [Compound 47, (3-(2,6-dioxopiperidin-3-yl)-2-methylquinolin-7-yl)methyl (1-phenylpiperidin-4-yl)carbamate]
				316 to 3160 nM	10 to 50%	25 to 50%	> 1000 nM	10 to 25%	< 10%	≥ 50%	Cc1nc2ccc(CNC(=O)NC3CCCCC3)cc2cc1N1CCC(=O)NC1=O [Compound 52, 1-cyclohexyl-3-((3-(2,4-dioxotetrahydropyrimidin-1(2H)-yl)-2-methylquinolin-6-yl)methyl)urea]
